Reference: US9833497B2, “Human originated EGF domain proteins and use of the same” (CHENGDU SOURCEBIO LIMITED-LIABILITY COMPANY, priority 2013, dated 2017)

Columns and labels:
Format in all cases: cell-based
E. coli DH5α = experiment: Antibacterial activity: MIC and growth curve against E. coli DH5α in 96-well plate; conditions: minimal inhibitory concentration against E. coli DH5α; 96-well plate, 5×10^5 CFU/mL, 37° C., judged after 8 h
Procedure, shortened: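 Log-phase bacteria (OD600 ~0.5) resuspended in LB at 5×10^5 CFU/mL, exposed to recombinant protein at 50, 25, 12.5 μg/mL final in triplicate, 37 °C shaking at 175 rpm. OD600 read every 30 min; MIC is lowest concentration showing no growth.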

Proteus mirabilis = experiment: MIC against Gram-negative bacteria: Proteus mirabilis; conditions: 5×10^5 CFU/mL; for MIC against P. mirabilis: 96-well plate, 37° C., 10 h
Procedure, shortened: (§1)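 Purified recombinant human EGF domain proteins are tested by broth dilution in LB against a 5×10^5 CFU/mL inoculum, with two-fold serial dilutions run in triplicate. Plates are incubated at 37° C with shaking, and the MIC is read as the lowest protein concentration without growth.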

Enterobacter cloacae = experiment: MIC against Gram-negative bacteria: Enterobacter cloacae; conditions: 5×10^5 CFU/mL; for MIC against E. cloacae: 96-well plate, 37° C., 10 h
Procedure, shortened: as §1

Aeromonas hydrophila = experiment: MIC against Gram-negative bacteria: Aeromonas hydrophila; conditions: 5×10^5 CFU/mL; for MIC against A. hydrophila: 96-well plate, 37° C., 10 h
Procedure, shortened: as §1

E. coli BL21 = experiment: MIC against Gram-negative bacteria: E. coli BL21; conditions: 5×10^5 CFU/mL; for MIC against E. coli BL21: 96-well plate, 37° C., 10 h
Procedure, shortened: as §1

Moraxella catarrhalis = experiment: MIC against Gram-negative bacteria: Moraxella catarrhalis; conditions: 5×10^5 CFU/mL; for MIC against M. catarrhalis: 96-well plate, 37° C., 10 h
Procedure, shortened: as §1

Proteus vulgaris = experiment: MIC against Gram-negative bacteria: Proteus vulgaris; conditions: 5×10^5 CFU/mL; for MIC against P. vulgaris: 96-well plate, 37° C., 10 h
Procedure, shortened: as §1

Pseudomonas aeruginosa = experiment: MIC against Gram-negative bacteria: Pseudomonas aeruginosa; conditions: 5×10^5 CFU/mL; for MIC against P. aeruginosa: 96-well plate, 37° C., 10 h
Procedure, shortened: as §1

Klebsiella pneumonia = experiment: MIC against Gram-negative bacteria: Klebsiella pneumonia; conditions: 5×10^5 CFU/mL; for MIC against K. pneumonia: 96-well plate, 37° C., 10 h
Procedure, shortened: as §1

Serratia marcescens = experiment: MIC against Gram-negative bacteria: Serratia marcescens; conditions: 5×10^5 CFU/mL; for MIC against S. marcescens: 96-well plate, 37° C., 10 h
Procedure, shortened: as §1

Citrobacter diversus = experiment: MIC against Gram-negative bacteria: Citrobacter diversus; conditions: 5×10^5 CFU/mL; for MIC against C. diversus: 96-well plate, 37° C., 10 h
Procedure, shortened: as §1

[1] = P. mirabilis, 10 h cultivation at 37° C.
[2] = E. cloacae, 10 h cultivation at 37° C.
[3] = A. hydrophila, 10 h cultivation at 37° C.
[4] = E. coli BL21, 10 h cultivation at 37° C.
[5] = M. catarrhalis, 10 h cultivation at 37° C.
[6] = P. vulgaris, 10 h cultivation at 37° C.
[7] = P. aeruginosa, 10 h cultivation at 37° C.
[8] = K. pneumonia, 10 h cultivation at 37° C.
[9] = S. marcescens, 10 h cultivation at 37° C.
[10] = C. diversus, 10 h cultivation at 37° C.

Substance	MIC (E. coli DH5α)	MIC (μg/mL) P. mirabilis (Proteus mirabilis; [1])	MIC (μg/mL) E. cloacae (Enterobacter cloacae; [2])	MIC (μg/mL) A. hydrophila (Aeromonas hydrophila; [3])	MIC (μg/mL) E. coli BL21 (E. coli BL21; [4])	MIC (μg/mL) M. catarrhalis (Moraxella catarrhalis; [5])	MIC (μg/mL) P. vulgaris (Proteus vulgaris; [6])	MIC (μg/mL) P. aeruginosa (Pseudomonas aeruginosa; [7])	MIC (μg/mL) K. pneumonia (Klebsiella pneumonia; [8])	MIC (μg/mL) S. marcescens (Serratia marcescens; [9])	MIC (μg/mL) C. diversus (Citrobacter diversus; [10])	MIC against P. mirabilis (Proteus mirabilis)	MIC against E. cloacae (Enterobacter cloacae)	MIC against A. hydrophila (Aeromonas hydrophila)	MIC against E. coli BL21 (E. coli BL21)	MIC against M. catarrhalis (Moraxella catarrhalis)	MIC against P. vulgaris (Proteus vulgaris)	MIC against P. aeruginosa (Pseudomonas aeruginosa)	MIC against K. pneumonia (Klebsiella pneumonia)	MIC against S. marcescens (Serratia marcescens)	further results
PRT185 (ELSECDSNPCRNGGSCKDQEDGYHCLCPPGYYGLHCE; listed as Homo sapiens)	50 µg/mL	12.5 µg/mL	50 µg/mL	25 µg/mL	25 µg/mL	50 µg/mL	12.5 µg/mL	12.5 µg/mL	25 µg/mL	50 µg/mL	12.5 µg/mL										
PRT149 (LSNICLSHPCLNGQCIDTVSGYFCKCDSGWTGVNCT; listed as Homo sapiens)	12.5 µg/mL	12.5 µg/mL	12.5 µg/mL	25 µg/mL	12.5 µg/mL	25 µg/mL	12.5 µg/mL	12.5 µg/mL	25 µg/mL	12.5 µg/mL	12.5 µg/mL										
PRT1262 (DVDECSMSNGSCDQGCVNTKGSYECVCPPGRRLHWNGKDCV; listed as Homo sapiens)	12.5 µg/mL																				MIC against P. mirabilis (Proteus mirabilis; Proteus mirabilis): 12.5 µg/mL; MIC against E. cloacae (Enterobacter cloacae; Enterobacter cloacae): 12.5 µg/mL; MIC against A. hydrophila (Aeromonas hydrophila; Aeromonas hydrophila): 50 µg/mL; MIC against E. coli BL21 (E. coli BL21; E. coli BL21): 25 µg/mL; MIC against M. catarrhalis (Moraxella catarrhalis; Moraxella catarrhalis): 50 µg/mL; MIC against P. vulgaris (Proteus vulgaris; Proteus vulgaris): 50 µg/mL; MIC against P. aeruginosa (Pseudomonas aeruginosa; Pseudomonas aeruginosa): 12.5 µg/mL; MIC against K. pneumonia (Klebsiella pneumonia; Klebsiella pneumonia): 25 µg/mL; MIC against S. marcescens (Serratia marcescens; Serratia marcescens): 25 µg/mL; MIC against C. diversus (Citrobacter diversus; Citrobacter diversus): 12.5 µg/mL
PRT425 (DVDECAMGTHTCQPGFLCQNTKGSFYCQARQRCMDGFLQDPEGNCV; listed as Homo sapiens)	12.5 µg/mL																				MIC (Proteus mirabilis; [1]): 50 µg/mL; MIC (Enterobacter cloacae; [2]): 12.5 µg/mL; MIC (Aeromonas hydrophila; [3]): 25 µg/mL; MIC (E. coli BL21; [4]): 25 µg/mL; MIC (Moraxella catarrhalis; [5]): 12.5 µg/mL; MIC (Proteus vulgaris; [6]): 12.5 µg/mL; MIC (Pseudomonas aeruginosa; [7]): 50 µg/mL; MIC (Klebsiella pneumonia; [8]): 25 µg/mL; MIC (Serratia marcescens; [9]): 50 µg/mL; MIC (Citrobacter diversus; [10]): 50 µg/mL
PRT462 (DVDECLEGLDDCHYNQLCENTPGGHRCSCPRGYRMQGPS; listed as Homo sapiens)	12.5 µg/mL											25 µg/mL	12.5 µg/mL	12.5 µg/mL	12.5 µg/mL	50 µg/mL	12.5 µg/mL	100 µg/mL	12.5 µg/mL	25 µg/mL	MIC against C. diversus (Citrobacter diversus): 12.5 µg/mL
PRT494 (CNCSLVGSTHHRCDVVTGHCQCKSKFGGRACDQCSLGYRDFPDCVP; listed as Homo sapiens)	50 µg/mL											50 µg/mL	50 µg/mL	25 µg/mL	25 µg/mL	25 µg/mL	25 µg/mL	12.5 µg/mL	25 µg/mL	12.5 µg/mL	MIC against C. diversus (Citrobacter diversus): 12.5 µg/mL
